Experiments:
human orexin-2 receptor = molecular target: T1, human orexin-2 receptor (Homo sapiens, UniProt O43614); experiment: OX2R FLIPR Ca flux assay (CHO cells); format: cell-based; conditions: for IC50: CHO cells expressing human orexin-2 receptor, agonist 70 pM Ala-6,12 orexin-A; for Fold Selectivity OX2R vs. OX1R: ratio of OX1R FLIPR to OX2R FLIPR
T1 construct: expressed in transfected cells; host or cells: CHO cells (G418 selection)
T1 sequence (O43614 1-444): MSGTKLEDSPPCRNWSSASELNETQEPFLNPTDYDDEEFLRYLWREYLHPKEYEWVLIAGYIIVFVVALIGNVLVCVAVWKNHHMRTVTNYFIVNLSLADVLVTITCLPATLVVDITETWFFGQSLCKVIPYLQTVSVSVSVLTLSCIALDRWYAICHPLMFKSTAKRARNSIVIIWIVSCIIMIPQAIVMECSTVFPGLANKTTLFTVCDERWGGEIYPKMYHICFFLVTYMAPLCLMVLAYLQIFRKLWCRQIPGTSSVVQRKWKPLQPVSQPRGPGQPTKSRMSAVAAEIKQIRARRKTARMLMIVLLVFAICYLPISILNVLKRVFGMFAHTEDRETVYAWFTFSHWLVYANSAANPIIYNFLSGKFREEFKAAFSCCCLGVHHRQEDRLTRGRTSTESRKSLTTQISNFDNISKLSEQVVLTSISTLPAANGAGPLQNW
Experimental: (§1) The utility of the compounds in accordance with the present invention as orexin receptor OX1R and/or OX2R antagonists may be readily determined without undue experimentation by methodology well known in the art, including the “FLIPR Ca^+ Flux Assay” (Okumura et al., Biochem. Biophys. Res. Comm. 280:976-981, 2001). In a typical experiment the OX1 and OX2 receptor antagonistic activity of the compounds of the present invention was determined in accordance with the following experimental method. For intracellular calcium measurements, Chinese hamster ovary (CHO) cells expressing the rat orexin-1 receptor or the human orexin-2 receptor, are grown in Iscove's modified DMEM containing 2 mM L-glutamine, […], 1% hypoxanthine-thymidine supplement, 100 U/ml penicillin, 100 μg/ml streptomycin and 10% heat-inactivated fetal calf serum (FCS). The cells are seeded at 20,000 cells/well into Becton-Dickinson black 384-well clear bottom sterile plates coated with poly-D-lysine. All reagents were from GIBCO-Invitrogen Corp. The seeded plates are incubated overnight at 37° C. and 5% CO2. Ala-6,12 human orexin-A as the agonist is prepared as a 1 mM stock solution in 1% bovine serum albumin (BSA) and diluted in assay buffer (HBSS containing 20 mM HEPES, 0.1% BSA and 2.5 mM probenecid, pH7.4) for use in the assay at a final concentration of 70 pM. Test compounds are prepared as 10 mM stock solution in DMSO, then diluted in 384-well plates, first in DMSO, then assay buffer. On the day of the assay, cells are washed 3 times with 100 μl assay buffer and then incubated for 60 min (37° C., 5% CO2) in 60 μl assay buffer containing 1 μM Fluo-4AM ester, 0.02% pluronic acid, and 1% BSA. The dye loading solution is then aspirated and cells are washed 3 times with 100 μl assay buffer. 30 μl of that same buffer is left in each well. Within the Fluorescent Imaging Plate Reader (FLIPR, Molecular Devices), test compounds are added to the plate in a volume of 25 μl, incubated for 5 min and finally 25 μl of agonist is added. Fluorescence is measured for each well at 1 second intervals for 5 minutes and the height of each fluorescence peak is compared to the height of the fluorescence peak induced by 70 pM Ala-6,12 orexin-A with buffer in place of antagonist. For each antagonist, IC50 value (the concentration of compound needed to inhibit 50% of the agonist response) is determined. Alternatively, compound potency can be assessed by a radioligand binding assay (described in Bergman et. al. Bioorg. Med. Chem. Lett. 2008, 18, 1425-1430) in which the inhibition constant (Ki) is determined in membranes prepared from CHO cells expressing either the OX1 or OX2 receptor. The intrinsic orexin receptor antagonist activity of a compound which may be used in the present invention may be determined by these assays.

rat orexin-1 receptor = molecular target: T2, rat orexin-1 receptor (Rattus norvegicus, UniProt P56718); experiment: OX1R FLIPR Ca flux assay (CHO cells); format: cell-based; conditions: CHO cells expressing rat orexin-1 receptor; agonist 70 pM Ala-6,12 orexin-A
T2 construct: expressed in transfected cells; host or cells: CHO cells (G418 selection)
T2 sequence (P56718 1-416): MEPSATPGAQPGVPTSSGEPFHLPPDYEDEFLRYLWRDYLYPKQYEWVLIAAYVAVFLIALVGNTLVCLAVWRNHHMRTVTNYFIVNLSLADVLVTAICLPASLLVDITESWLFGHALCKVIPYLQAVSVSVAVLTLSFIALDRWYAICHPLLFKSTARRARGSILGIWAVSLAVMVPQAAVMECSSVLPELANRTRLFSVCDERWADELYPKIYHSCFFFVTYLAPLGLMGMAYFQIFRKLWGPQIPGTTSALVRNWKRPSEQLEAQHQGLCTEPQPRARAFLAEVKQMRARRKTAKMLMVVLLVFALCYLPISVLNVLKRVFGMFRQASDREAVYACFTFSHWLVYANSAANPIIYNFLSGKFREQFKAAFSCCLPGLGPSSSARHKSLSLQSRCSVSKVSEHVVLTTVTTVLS
Experimental: as §1

| Compound | IC50 (human orexin-2 receptor) | Fold Selectivity OX2R vs. OX1R (human orexin-2 receptor) | IC50 (rat orexin-1 receptor) |
| --- | --- | --- | --- |
| Cc1oc(N2CCCN(C(=O)c3ccccc3OC(F)F)CC2)nc1C(C)(C)O [Example 12, (2-(difluoromethoxy)phenyl)(4-(4-(2-hydroxypropan-2-yl)-5-methyloxazol-2-yl)-1,4-diazepan-1-yl)methanone] | 12 nM | 332 fold | 3990 nM |
| Cc1oc(N2CCCN(C(=O)c3cccnc3OCC(F)F)CC2)nc1C(C)(C)O [Example 16, 2-[2-(4-{[2-(2,2-difluoroethoxy)pyridin-3-yl]carbonyl}-1,4-diazepan-1-yl)-5-methyl-1,3-oxazol-4-yl]propan-2-ol] | 26 nM | 142 fold | 3690 nM |
| CC(C)(O)c1csc(N2CCCN(C(=O)c3cccnc3OCC(F)F)CC2)n1 [Example 22, (2-(2,2-difluoroethoxy)pyridin-3-yl)(4-(4-(2-hydroxypropan-2-yl)thiazol-2-yl)-1,4-diazepan-1-yl)methanone] | 90 nM | >111 fold | > 10000 nM |
| Cc1cc(C)nc(N2CCCN(C(=O)c3ccccc3OC(F)F)CC2)n1 [Example 5, 1-{[2-(difluoromethoxy)phenyl]carbon-yl}-4-(4,6-dimethylpyrimidin-2-yl)-1,4-diazepane] | 76 nM | >131 fold | > 10000 nM |
| CCOc1ncccc1C(=O)N1CCCN(c2nc(C(C)(C)O)c(C)o2)CC1 [Example 21, 2-(2-{4-[(2-ethoxypyridin-3-yl)carbonyl]-1,4-diazepan-1-yl}-5-methyl-1,3-oxazol-4-yl)propan-2-ol] | 34 nM | 231 fold | 7890 nM |

More lines, in order of falling IC50 (human orexin-2 receptor), values ahead:

| IC50 (human orexin-2 receptor) | Fold Selectivity OX2R vs. OX1R (human orexin-2 receptor) | IC50 (rat orexin-1 receptor) | Compound |
| --- | --- | --- | --- |
| 64 nM | 132 fold | 8500 nM | CCOc1ccccc1C(=O)N1CCCN(c2nc(C)cc(C)n2)CC1 [Example 7, 1-(4,6-dimethylpyrimidin-2-yl)-4-[(2-ethoxyphenyl)carbonyl]-1,4-diazepane] |
| 57 nM | >175 fold | > 10000 nM | CC(C)(O)c1csc(N2CCCN(C(=O)c3cccnc3OCC(F)(F)F)CC2)n1 [Example 23, (4-(4-(2-hydroxypropan-2-yl)thiazol-2-yl)-1,4-diazepan-1-yl)(2-(2,2,2-trifluoroethoxy)pyridin-3-yl)methanone] |

From patent US9732077B2, “Diazepane orexin receptor antagonists” (MERCK SHARP & DOHME CORP., priority 2013, dated 2017)
